Entries after “also recorded” stand apart in the source; their conditions may differ.
What was measured:
[1] = tested on: GFAP in hGBM-1, hGBM-5 and hGBM-14 cells; assay: GFAP expression by immunocytochemistry and Western blot in primary glioblastoma cultures; format: cell-based, human
Procedure: (§1) Tumour cells cultured on laminin/poly-ornithine coated glass chamber slides were washed in phosphate buffered saline (PBS) and fixed in 4% paraformaldehyde in phosphate buffer for 10 minutes. Cells were washed in PBS three times and incubated with primary antibodies diluted in buffer (0.3% TX-100 (Sigma), albumin fraction V (Sigma), phosphate buffer pH 7.0) over night at 4° C. Secondary antibodies conjugated with FITC or Cy3 (Jackson lmmunoresearch Laboratories) were applied for one hour at room temperature, followed by rinsing with PBS. Antibodies bound were visualized with epifluorescence microscopy using a Leica DMRB microscope, and photographs were taken using a Nikon F50 camera. The following antibodies were used at specified dilutions: monoclonal anti GFAP, 1:500 (DAKO), monodonal anti Cx43 (1:1000, Transduction Laboratories), and FITC (1:80)-conjugated secondary antibodies (Jackson lmmunoresearch Laboratories). Primary glioblastoma cells were grown to 75% confluency and cultured for 48 hours in the presence or absence of 4-PB (2, 5 and 10 mM) and processed as previously described (Asklund et al, Exp cell Res, 2003, 284:183-193). Briefly, cell extracts, containing equal amount of protein (30 μg/lane for Cx43 detection and 60 μg/lane for GFAP detection) were loaded on 10% polyacrylamide gels, separated by SDS-PAGE, and electro-transferred onto nitrocellulose membranes. A rabbit polyclonal antibody to Cx43 diluted 1:8000 (Sigma) or a mouse monoclonal antibody to GFAP diluted 1:1000 (Pharmingen) were applied overnight at 40° C. The detection step was performed with the enhanced chemiluminescence (ECL) detection kit (Amersham). The membranes were exposed to Hyperfilm-ECL (Amersham) for 1-5 min. For quantification, films were scanned and analysed with Image Gauge (version 3.12, Fuji Photo Film Corp.). Data analysis was performed using the program Sigma Plot for Windows (version 6, Jandel Corp.). All results are expressed as means ± SE for the indicated number of experiments (FIG. 6).

[2] = tested on: gap junction communication between HNSC100 neural stem cells and glioblastoma cells; assay: Fluorescent dye transfer between neural stem cells and glioma cells; format: cell-based, human; conditions: pre-treatment 48 hours with 4-PB, 0.5 mM (stem cells) and 2 mM (glioblastoma cells)
Procedure: Donor human neural stem cells (1×10^5 HNSC100) and recipient human glioblastoma cells (1×10^5 U343MGa) cells were plated each in 4 separate 35 mm petri dishes. […] Donor cells were incubated with 10 μM Dil (a fluorescent lipophilic carbocyanine tracer; Molecular Probes) and 5 μM Calcein-AM (an acetoxymethyl ester derivative; Molecular Probes) for 20 min in complete medium. Cells were washed three times with culture medium and twice with PBS to remove free dye. After trypsinization, cells were pelleted by centrifugation and resuspended in co-culture medium. Donor cells 50% confluent were added to the plate of recipient cells. AGA treatment, when performed, was always continued throughout the experiment. Assessment of functional GJC by Calcein dye transfer from donor to recipient cells was carried out after 4 hours using an Olympus BX50WI microscope.

[3] = tested on: U87MG/tomato kinase positive cells; assay: Synergistic cell killing effect of AZT and 4-PB; format: cell-based, human; conditions: 72 hours
Procedure: Medium was replaced by 300 μL of MTT solution (0.5mg/mL; Sigma # M 2128) per well and incubated at 37° C. for 30 minutes. The MTT solution was aspirated and 350 μL of isopropranol was added to dissolve the formazan product by gentle shaking. Three 100 μL aliquots of formazan solution from each well were pipetted into a 96-well microplate. Optical density was measured by Multiscan RMCC/340 plate reader (MicroELISA Reader) at 570 nm with reference at 650 nm. The results were expressed as percentage of live cells compared to control untreated cells (100%). The analyses were run as three independent experiments.

[4] = tested on: gap junction communication in primary glioblastoma cells (hGBM-1); assay: Fluorescent dye (calcein/Dil) transfer between primary glioblastoma cells; format: cell-based, human; conditions: recipient cells 5 mM 4-PB for 48 hours prior to dye transfer
Procedure: Primary glioblastoma cells were cultured on 35 mm petri dishes and in vitro labelled with 5 μM calcein-AM (acetomethylic ester) and 10 μM Dil (Molecular Probes) diluted in supplemented serum free medium DMEM/F12 and incubated for 30 min at 37° C. The cells were washed once with the same medium, trypsinized and suspended in the culture medium induding 10% FBS. The cells were pelleted by centrifugation at 1600 rpm for 1 minute and resuspended in fresh culture medium. The procedure was repeated twice. Following the second resuspension, the labelled cells were plated on top of unlabelled cells of the same origin. These cells were either pretreated with 4-PB at a concentration of 5 mM, or non-treated for serving as a control. The labeled cells were then allowed to settle for 1 hour, followed by analyses using epifluorescence detection microscopy every 30 minutes for up to 6 hours. GJC (gap-junction communication) were studied using an Olympus BX50WI microscope equipped with UV epifluorescence and red and green attenuating filters.

[5] = tested on: Cx43 in hGBM-1, hGBM-5 and hGBM-14 cells; assay: Connexin 43 expression by immunocytochemistry and Western blot in primary glioblastoma cultures; format: cell-based, human
Procedure: as §1, with “Briefly, cell extracts, containing equal amount of protein (30 μg/lane for Cx43 detection and 60 μg/lane for GFAP detection) were loaded on 10% polyacrylamide gels, separated by SDS-PAGE, and electro-transferred onto nitrocellulose membranes. A rabbit polyclonal antibody to Cx43 diluted 1:8000 (Sigma) or a mouse monoclonal antibody to GFAP diluted 1:1000 (Pharmingen) were applied overnight at 40° C. The detection step was performed with the enhanced chemiluminescence (ECL) detection kit (Amersham). The membranes were exposed to Hyperfilm-ECL (Amersham) for 1-5 min.” left out, “Data analysis was performed using the program Sigma Plot for Windows (version 6, Jandel Corp.).” left out

[6] = tested on: GFAP and connexin 43 in S6 cells; assay: Western blot of GFAP and connexin 43 in S6 glioma cells after 4-PB; format: cell-based, Rat; conditions: 2 mM 4-PB for 2 days
Procedure: Protein from S6 cells treated with 4-PB for 48 h was extracted and a Western blot analysis was performed. The intensity of the Cx43 specific signal was determined by imager and the activation of Cx43 was calculated. S6 cells not treated with 4-PB acted as reference.

Substance: 4-phenylbutyrate [4-PB]
- phosphorylated isoform of GFAP (Western blot) ([1]; 4-PB 2, 5, 10 mM, 48 hours): remained stable
- GFAP immunostaining intensity (immunocytochemistry) ([1]; all three cultures, 5 mM 4-PB for 48 hours): more intense immunostaining; also recorded: increased
- non-phosphorylated isoform of GFAP (Western blot) ([1]; hGBM-5 and hGBM-14, 4-PB 2, 5, 10 mM, 48 hours): upregulated; also recorded: increase
- dye transfer from neural stem cells to glioblastoma cells [2]: can induce such gap junction communication; also recorded: substantially enhanced
- combination effect on cell killing ([3]; 15 μM AZT and 0.5 mM 4-PB): clear additive or synergistic effects
- effect of 4-PB on cell killing by AZT ([3]; 15 μM AZT, 4-PB 0.5-8 mM): enhanced the effects of AZT
- intercellular spread of calcein (gap junction dye transfer) [4]: markedly improved; also recorded: facilitated gap junction dependent calcein transfer substantially
- Cx43 immunoreactivity at the cell surface (immunocytochemistry) ([5]; 5 mM 4-PB for 48 hours): marked increase
- non-phosphorylated and phosphorylated isoforms of Cx43 (Western blot) ([5]; 4-PB 2-10 mM, 48 hours): increased quantitatively; also recorded: marked increase
- expression of GFAP [6]: increased expression
- expression of connexin 43 [6]: increased expression

— patent publication US20070264241A1, “Compounds for Enhanced Cancer Therapy” (priority 2004, published 2007)
